Data taken from patent US20250123282A1, “METHODS FOR EVALUATION AND TREATMENT OF TYROSINE KINASE INHIBITOR (TKI)-RESISTANT ACUTE MYELOID LEUKEMIA” (LOMA LINDA UNIVERSITY, priority 2021, published 2025).

Tests used:
primary AML BMMNC = test: Ex vivo combination treatment of primary AML BMMNC (FACS, imaging, qPCR); assay type: cell-based, human; settings: 80 nM GILT
Protocol: Whether targeting the MIF-CXCR2 signaling pathway would effectively treat AML blasts were investigated. First, the combination of GILT with ribosomal protein S19 (RPS19) on MV4-11 blasts was tested in vitro. RPS19, a MIF inhibitor, has been reported to suppress cisplatin-activated MIF-CD74-NFκB signaling pathway in acute kidney injury. […] The combination of 80 nM GILT with 50 uM SB225002, a CXCR2-inhibitor (CXCR2-I) on MV4-11 blasts in vitro were examined. […] The anti-leukemic effect of combining GILT with CXCR2-I on primary BMMNC ex vivo were examined. […] There may be alternative cytokine pathways compensating for the defect of MIF-CXCR2 pathways.
The combination of 80 nM GILT and 50 uM BAY11-7821 (a NFκB-I) was tested as a novel therapeutic approach for AML.
Next, the anti-leukemic effect of the combination was examined on primary BMMNC from refractory AML patients (Patient #7, Table 4).
Human Samples. AML bone marrow (BM) mononuclear cells (BMMNC) (Patients #1-7, Table 4) were obtained from the City of Hope National Medical Center (COHNMC). All donor patients signed an informed consent form. Sample acquisition was approved by the Institutional Review Boards at the LLUMC and the COHNMC in accordance with an assurance filed with and approved by the Department of Health and Human Services, and it met all requirements of the Declaration of Helsinki.
For MIF in vitro experiments, different doses of MIF were added to 1 ml of 1×10^6 MV4-11 cells or RAW264.7 cells for each experimental group in 24-well plates. Two days after the one dose treatment, cells were then collected for either analyses by FACS and qPCR. As combination agents to treat blasts in vitro or ex vivo, one dose of 80 nM GILT with one dose of different inhibitors were added to 1 ml of 1×10^6 MV4-11 cells or 1 ml of 0.5-1×10^6 primary AML BMMNC for each experimental group in 24-well plates. Dose-dependent experiments of CXCR2 inhibitor and NFκB inhibitor with or without 80 nM GILT were performed. […] Three days after the one dose treatment, cells were then collected for either analyses by FACS and qPCR.
Flow Cytometry (FACS). Cells were harvested and examined for the expression of cell surface biomarkers (CD) and intracellular proteins by multichromatic FACS as previously described. About 1×10^4˜10^6 cells in 100 μl FACS buffer (PBS containing 1% FBS and 0.05% sodium azide) were stained with various fluorescence-conjugated antibodies specific for the desired cell surface proteins at 4° C. for 30 min. The surface-stained cells were then fixed and permeabilized using the appropriate reagents (e.g. the BD Pharmingen Cytofix/Cytoperm buffer) and stained with different fluorescence-conjugated antibodies specific for the desired intracellular proteins at 4° C. for 2 hours in the permeabilizing buffer (e.g. the BD Perm/Wash buffer). Concentrations of the Abs were used per the manufacturers' recommendations. Finally, the cells were washed twice in the permeabilizing buffer and twice in the FACS buffer before being analyzed on the BD FACSAria II. Data was analyzed using the FlowJo software (Tree Star Inc., Ashland, OR).
RNA Isolation and Real-Time Polymerase Chain Reaction (qPCR) analysis. MV4-11 and MOLM-14 cells were cultured with the presence of TKI drugs for 72 hours or re-plated 28 days after the treatment of TKI drugs. Cells were isolated for RNA isolation and qPCR analysis as previously described. Total RNA was isolated using the RNeasy Micro Kit (Qiagen) according to the manufacturer's instruction. First-strand cDNA was synthesized using the SuperScript III Reverse Transcriptase (Invitrogen; Life Technologies). With an Applied Biosystems 7900HT Real-Time PCR machine, qPCR was performed and analyzed using known primers for the specific markers. The PCR conditions were 10 minutes at 95° C. followed by 40 cycles of 10 seconds at 95° C. and 15 seconds at 60° C. The relative expression level of a gene was determined using the ΔΔCt method and normalized to GAPDH.

MV4-11 cells = test: Phase-bright imaging of re-growth of TKI-treated MV4-11; assay type: cell-based, human
From the text: To follow the cell fate of TKI-treated MV4-11 and MOLM-14, culturing of blasts were continued by performing medium change every 2-3 days. […] The BAD protein is a pro-apoptotic member of the BCL-2 gene family, which is involved in initiating apoptosis. Dephosphorylated BAD is pro-apoptotic by binding BCL-2 and inactivating BCL-2, while phosphorylated BAD (pBAD) is anti-apoptotic by leaving BCL-2 free to inhibit BAX-triggered apoptosis.
Small Molecular Inhibitors and in vitro & ex vivo Treatment. […] The dose of 80 nM for the four TKIs was selected based on their dose-dependent cytotoxicity in previous reports. […] Both GILT and QUIZ were reported to start to suppress the tumorigenic clustering and c-Kit at the dose of 80 nM. […] The combination of 5 μM 5-Azacitidine (AZA) and 80 nM 1α,25-Dihydroxyvitamin D3 (VD3) was added to the experimental group similar to the previous report. As combination agents to treat blasts in vitro, one dose of 80 nM GILT with one dose of either 100 nM Venetoclax (BCL2 inhibitor), 10 μM (R)-Lisofylline (STAT4 inhibitor), 100 nM AZD1208 (PIM inhibitor), 500 nM PF-06826647 (TYK2 inhibitor), or 500 nM AT9283 (JAK2/3 inhibitor) were added to 1 ml of 1×10^6 cells for each experimental group in 24 well plates. Three days after the one dose treatment, cells were then collected for either analyses by FACS and qPCR, or re-plated into 24 well plates for continued culture. At different time points, re-plated cells were collected for analyses by FACS and qPCR. Medium change was performed every 2-3 days.
Imaging Acquisition. Phase-bright images were taken using an Olympus 1X71 inverted microscope and were processed using an Olympus cellSens Dimension 1.15 Imaging Software.

[1] = newly diagnosed AML, Patient #5, 50 uM BAY11-7821
[2] = primary BMMNC ex vivo (Patient #2 and #3), 50 uM CXCR2-I

Compound | percentage of Ki67+CD33+ proliferating blasts (primary AML BMMNC; [1]) [%] | percentage of viable CD33+CD13+ primary blasts (primary AML BMMNC; [1]) [%] | percentage of Ki67+CD13+ blasts (primary AML BMMNC; [2]) [%] | percentage of viable CD33+CD13+ primary blasts (primary AML BMMNC; [2]) [%] | re-growth / tumorigenic clusters of MV4-11 (MV4-11 cells; 10 days after TKI treatment) | re-growth / tumorigenic clusters of MV4-11 (MV4-11 cells; 20 days after TKI treatment) | re-growth / relapse of MV4-11 (MV4-11 cells; 28 days after TKI treatment)
CCc1nc(C(N)=O)c(Nc2ccc(N3CCC(N4CCN(C)CC4)CC3)c(OC)c2)nc1NC1CCOCC1 [GILT, Gilteritinib] | 73.3 | 35.8 | 60 | 7.14 |  |  | 
CC(C)(C)c1cc(NC(=O)Nc2ccc(-c3cn4c(n3)sc3cc(OCCN5CCOCC5)ccc34)cc2)no1 [QUIZ, Quizartinib] |  |  |  |  | few newly formed tumorigenic clusters | many tumorigenic clusters | grew confluent without tumorigenic clusters
